Data taken from US20230148184A1, “COMPOUNDS AND METHODS FOR MODULATING SPLICING” (REMIX THERAPEUTICS INC., priority 2020, published 2023).

Key:
Assay type in all cases: cell-based
HTT mRNA = assay: RT-qPCR splicing assay for HTT mRNA isoforms (canonical junction CJ and alternative junction AJ); conditions: A673 or K562 cell line, 24 hours compound treatment; for IC50: decrease in CJ mRNA; for AC50: increase in AJ mRNA
Protocol: (§1) Compounds described herein were used to modulate RNA transcript abundance in cells. The expression of a target mRNA was measured by detecting the formation of an exon-exon junction in the canonical transcript (CJ). A compound mediated exon-inclusion event was detected by observing an increase in formation of a new junction with an alternative exon (AJ). Real-time qPCR assays were used to detect these splicing switches and interrogate the potency of various compounds towards different target genes. A high-throughput real time quantitative PCR (RT-qPCR) assay was developed to measure these two isoforms of the mRNA (CJ and AJ) for an exemplary gene, HTT, together with a control housekeeping gene, GAPDH or GUSB or PPIA, used for normalization. Briefly, the A673 or K562 cell line was treated with various compounds described herein (e.g., compounds of Formula (I)). After treatment, the levels of the HTT mRNA targets were determined from each sample of cell lysate by cDNA synthesis followed by qPCR.
Cells-to-CT 1-step kit: ThermoFisher A25602, Cells-to-CT lysis reagent: ThermoFisher 4391851C, TaqMan™ Fast Virus 1-Step Master Mix: ThermoFisher 4444436 GAPDH: VIC-PL, ThermoFisher 4326317E (Assay: Hs99999905_m1)—used for K562/suspension cell lines GUSB: VIC-PL, ThermoFisher 4326320E (Assay: Hs99999908_m1)—used for K562/suspension cell lines PPIA: VIC-PL, ThermoFisher 4326316E (Assay: Hs99999904_m1)—used for A673/adherent cell lines
(§2) The A673 cell line was cultured in DMEM with 10% FBS. Cells were diluted with full growth media and plated in a 96-well plate (15,000 cells in 100 ul media per well). The plate was incubated at 37° C. with 5% CO2 for 24 hours to allow cells to adhere. An 11-point 3-fold serial dilution of the compounds was made in DMSO then diluted in media in an intermediate plate. Compounds were transferred from the intermediate plate to the cell plate with the top dose at a final concentration of 10 uM in the well. Final DMSO concentration was kept at or below 0.25%. The cell plate was returned to the incubator at 37° C. with 5% CO2 for an additional 24 hours.
(§3) The K562 cell line was cultured in IMDM with 10% FBS. For K562, cells were diluted with full growth media and plated in either a 96-well plate (50,000 cells in 50 uL media per well) or a 384-well plate (8,000-40,000 cells in 45 uL media per well). An 11-point 3-fold serial dilution of the compounds were made in DMSO then diluted in media in an intermediate plate. Compound was transferred from the intermediate plate to the cell plate with the top dose at a final concentration of 10 uM in the well. Final DMSO concentration was kept at or below 0.25%. Final volume was 100 uL for 96-well plate and 50 uL for 384-well plate. The cell plate was then placed in an incubator at 37° C. with 5% CO2 for 24 hours.
(§4) The cells were then gently washed with 50 uL-100 uL cold PBS before proceeding to addition of lysis buffer. 30 uL-50 uL of room temperature lysis buffer with DNAse I (and optionally RNAsin) was added to each well. Cells were shaken/mixed thoroughly at room temperature for 5-10 minutes for lysis to take place and then 3 uL-5 uL of room temperature stop solution was added and wells were shaken/mixed again. After 2-5 minutes, the cell lysate plate was transferred to ice for RT-qPCR reaction setup. The lysates could also be frozen at −80° C. for later use.
In some cases, a direct lysis buffer was used. An appropriate volume of 3× lysis buffer (10 mM Tris, 150 mM NaCl, 1.5%-2.5% Igepal and 0.1-1 U/uL RNAsin, pH 7.4) was directly added to either K562 or A673 cells in media and mixed by pipetting 3 times. The plates were then incubated at room temperature with shaking/rocking for 20-50 minutes to allow for lysis to take place. After this time, the cell lysate plate was transferred to ice to set up for the RT-qPCR reactions. The lysates could also be frozen at −80° C. for later use. […]

HTT CJ mRNA = assay: Gene panel canonical junction qPCR assay, HTT; conditions: decrease in CJ mRNA levels, RT-qPCR
Protocol: as §1, §2, §3, §4
(§5) In some cases, a direct lysis buffer was used. An appropriate volume of 3× lysis buffer (10 mM Tris, 150 mM NaCl, 1.5%-2.5% Igepal and 0.1-1 U/uL RNAsin, pH 7.4) was directly added to either K562 or A673 cells in media and mixed by pipetting 3 times. The plates were then incubated at room temperature with shaking/rocking for 20-50 minutes to allow for lysis to take place. After this time, the cell lysate plate was transferred to ice to set up for the RT-qPCR reactions. The lysates could also be frozen at −80° C. for later use.
(§6) To set up 10 uL RT-qPCR reactions, cell lysates were transferred to 384-well qPCR plates containing the master mix according to the table below. The plates were sealed, gently vortexed, and spun down before the run. The volumes were adjusted accordingly in some instances where the reaction was carried in 20 uL. The table below summarizes the components of the RT-qPCR reactions:
(§7) The RT-qPCR reaction was performed using a QuantStudio (ThermoFisher) under the following fast cycling conditions. […]

Target C CJ mRNA = assay: Gene panel canonical junction qPCR assay, Target C; conditions: decrease in CJ mRNA levels, RT-qPCR
Protocol: as §1, §2, §3, §4, §5, §6, §7

SMN2 CJ mRNA = assay: Gene panel canonical junction qPCR assay, SMN2; conditions: decrease in CJ mRNA levels, RT-qPCR
Protocol: as §1, §2, §3, §4, §5, §6, §7

SMILES | IC50 (HTT mRNA) | AC50 (HTT mRNA) | IC50 (HTT CJ mRNA) | IC50 (Target C CJ mRNA) | IC50 (SMN2 CJ mRNA)
C[C@H]1C[C@H](N(C)c2ccc3c(c2)OCc2cc(-c4cn[nH]c4)ccc2-3)CCN1 [Compound 102, (2S,4R)—N,2-dimethyl-N-[8-(1H-pyrazol-4-yl)-6H-benzo[c]chromen-3-yl]piperidin-4-amine] | > 10 µM | > 10 µM | > 10 µM | > 10 µM | 
c1cnn(-c2ccc3c(c2)COc2nc(N(C4CC4)[C@@H]4C[C@H]5CCC[C@@H](C4)N5)ccc2-3)c1 [Compound 203] | 1 to 10 µM | 1 to 10 µM |  |  | 
CCN(c1ccc2c(n1)OCc1cc(-n3cccn3)ccc1-2)[C@@H]1C[C@H]2CCC[C@@H](C1)N2 [Compound 195] |  |  | 0.1 to 1 µM | 1 to 10 µM | 0.1 to 1 µM
CN(c1ccc2c(c1)OCc1cc(-c3cn[nH]c3)ccc1-2)[C@@H]1C[C@H]2CC[C@@H](C1)N2 [Compound 104, (1R,3S,5S)—N-Methyl-N-[8-(1H-pyrazol-4-yl)-6H-benzo[c]chromen-3-yl]-8-azabicyclo[3.2.1]octan-3-amine] | > 10 µM | > 10 µM | > 10 µM | > 10 µM | 
CN(c1ccc2c(n1)COc1cc(-n3cccn3)ccc1-2)[C@@H]1C[C@H]2CC[C@@H](C1)N2 [Compound 109] | 0.1 to 1 µM | 0.1 to 1 µM |  |  | 
C[C@@H]1C[C@H](N(C)c2ccc3c(c2)OCc2cc(-c4cn[nH]c4)ccc2-3)CCN1 [Compound 101, (2R,4R)—N,2-dimethyl-N-[8-(1H-pyrazol-4-yl)-6H-benzo[c]chromen-3-yl] piperidin-4-amine] |  | > 10 µM |  | > 10 µM | 
CC1(C)CC(Nc2ccc3c(n2)CCOc2cc(-c4cn[nH]c4)ccc2-3)CC(C)(C)N1 [Compound 141, 13-(1H-pyrazol-4-yl)-N-(2,2,6,6-tetramethylpiperidin-4-yl)-10-oxa-6-azatricyclo[9.4.0.0^[2,7]]pentadeca-1(11),2(7),3,5,12,14-hexaen-5-amine] | > 10 µM | > 10 µM | > 10 µM | 1 to 10 µM | 
CN(c1ccc2c(c1)COc1cc(-n3cccn3)ccc1-2)[C@@H]1C[C@H]2CC[C@@H](C1)N2 [Compound 105] | > 10 µM | > 10 µM | > 10 µM |  | > 10 µM
CC1(C)CC(Nc2ccc3c(c2)COc2cc(-n4cccn4)ccc2-3)CC(C)(C)N1 [Compound 118, 2,2,6,6-tetramethyl-N-[3-(pyrazol-1-yl)-6H-benzo[c]chromen-8-yl]piperidin-4-amine] | > 10 µM | > 10 µM | > 10 µM |  | > 10 µM
Cc1cnc(-c2ccc3c(c2)COc2nc(N(C)[C@@H]4C[C@H]5CC[C@@H](C4)N5)ccc2-3)o1 [Compound 206] | 0.1 to 1 µM | 0.1 to 1 µM |  |  | 
CN(c1ccc2c(c1)COc1cc(-n3cccn3)ccc1-2)C1CC(C)(C)NC(C)(C)C1 [Compound 117, N,2,2,6,6-pentamethyl-N-[3-(pyrazol-1-yl)-6H-benzo[c]chromen-8-yl]piperidin-4-amine] | > 10 µM | > 10 µM | > 10 µM |  | > 10 µM
CN(c1ccc2c(c1)CCOc1cc(-c3cn[nH]c3)ccc1-2)[C@@H]1C[C@H]2CC[C@@H](C1)N2 [Compound 112] |  |  |  | > 10 µM | 
c1cc2c(cc1-c1cn[nH]c1)OCCc1nc(N[C@@H]3C[C@H]4CC[C@@H](C3)N4)ccc1-2 [Compound 140, N-[(1R,3S,5S)-8-azabicyclo[3.2.1]octan-3-yl]-13-(1H-pyrazol-4-yl)-10-oxa-6-azatricyclo[9.4.0.0^[2,7]]pentadeca-1(11),2(7),3,5,12,14-hexaen-5-amine] | > 10 µM | > 10 µM | > 10 µM |  | > 10 µM
c1cnn(-c2ccc3c(c2)COc2nc(N(C4CC4)[C@@H]4C[C@H]5CC[C@@H](C4)N5)ccc2-3)c1 [Compound 205] | 1 to 10 µM | 0.1 to 1 µM |  |  | 
CC1(C)CC(N(c2ccc3c(n2)OCc2cc(-n4cccn4)ccc2-3)C2CC2)CC(C)(C)N1 [Compound 204] | 1 to 10 µM | > 10 µM |  |  | 
CN(c1ccc2c(n1)CCOc1cc(-c3cn[nH]c3)ccc1-2)C1CC(C)(C)NC(C)(C)C1 [Compound 114, N-methyl-13-(1H-pyrazol-4-yl)-N-(2,2,6,6-tetramethylpiperidin-4-yl)-10-oxa-6-azatricyclo[9.4.0.0^[2,7]]pentadeca-1(11),2(7),3,5,12,14-hexaen-5-amine] | 0.1 to 1 µM | < 0.1 µM | 0.1 to 1 µM | < 0.1 µM | 
CN(c1ccc2c(n1)CCOc1cc(-c3cn[nH]c3)ccc1-2)[C@@H]1C[C@H]2CC[C@@H](C1)N2 [Compound 127, N-[(1R,3S,5S)-8-azabicyclo[3.2.1]octan-3-yl]-N-methyl-13-(1H-pyrazol-4-yl)-10-oxa-6-azatricyclo[9.4.0.0^[2,7]]pentadeca-1(11),2(7),3,5,12,14-hexaen-5-amine] | > 10 µM | > 10 µM | > 10 µM |  | > 10 µM
c1cnn(-c2ccc3c(c2)OCc2cc(N[C@@H]4C[C@H]5CC[C@@H](C4)N5)ccc2-3)c1 [Compound 119] | > 10 µM | > 10 µM | > 10 µM | 1 to 10 µM | 
c1cc2c(cc1N[C@@H]1C[C@H]3CC[C@@H](C1)N3)CCOc1cc(-c3cn[nH]c3)ccc1-2 [Compound 132, N-[5-(1H-pyrazol-4-yl)-8-oxatricyclo[9.4.0.0^[2,7]]pentadeca-1(11),2(7),3,5,12,14-hexaen-13-yl]-8-azabicyclo [3.2.1] octan-3-amine] | > 10 µM | > 10 µM | > 10 µM | > 10 µM | 
CN(c1ccc2c(c1)CCOc1cc(-n3cccn3)ccc1-2)[C@@H]1C[C@H]2CC[C@@H](C1)N2 [Compound 138, (1R,3S,5S)—N-methyl-N-[5-(pyrazol-1-yl)-8-oxatricyclo[9.4.0.0^[2,7]]pentadeca-1(11),2(7), 3,5,12,14-hexaen-13-yl]-8-azabicyclo [3.2.1] octan-3-amine] | 1 to 10 µM | 1 to 10 µM | 1 to 10 µM | 1 to 10 µM | 
CN(c1ccc2c(n1)CCOc1cc(-n3cccn3)ccc1-2)[C@@H]1C[C@H]2CC[C@@H](C1)N2 [Compound 128, N-[(1R,3S,5S)-8-azabicyclo[3.2.1]octan-3-yl]-N-methyl-13-(pyrazol-1-yl)-10-oxa-6-azatricyclo[9.4.0.0^[2,7]]pentadeca-1(11),2(7),3,5,12,14-hexaen-5-amine] | > 10 µM | > 10 µM | > 10 µM | > 10 µM | 
